Experimental findings from PMC7489537, “Ser-653-Asn substitution in the acetohydroxyacid synthase gene confers resistance in weedy rice to imidazolinone herbicides in Malaysia” (PLoS ONE, 2020) are described below.

Where a chain is given by its changes, count along the chain named.

For experiment [1], the target named is T1, AHAS (acetohydroxyacid synthase), MR219 (Oryza sativa, UniProt Q6K2E8, P67T).
T1 construct: gene ALS1; native enzyme, partially purified leaf extract; natural Thr93, Ser653, Val669 (Arabidopsis numbering)
T1 sequence (Q6K2E8 44-644 P67T): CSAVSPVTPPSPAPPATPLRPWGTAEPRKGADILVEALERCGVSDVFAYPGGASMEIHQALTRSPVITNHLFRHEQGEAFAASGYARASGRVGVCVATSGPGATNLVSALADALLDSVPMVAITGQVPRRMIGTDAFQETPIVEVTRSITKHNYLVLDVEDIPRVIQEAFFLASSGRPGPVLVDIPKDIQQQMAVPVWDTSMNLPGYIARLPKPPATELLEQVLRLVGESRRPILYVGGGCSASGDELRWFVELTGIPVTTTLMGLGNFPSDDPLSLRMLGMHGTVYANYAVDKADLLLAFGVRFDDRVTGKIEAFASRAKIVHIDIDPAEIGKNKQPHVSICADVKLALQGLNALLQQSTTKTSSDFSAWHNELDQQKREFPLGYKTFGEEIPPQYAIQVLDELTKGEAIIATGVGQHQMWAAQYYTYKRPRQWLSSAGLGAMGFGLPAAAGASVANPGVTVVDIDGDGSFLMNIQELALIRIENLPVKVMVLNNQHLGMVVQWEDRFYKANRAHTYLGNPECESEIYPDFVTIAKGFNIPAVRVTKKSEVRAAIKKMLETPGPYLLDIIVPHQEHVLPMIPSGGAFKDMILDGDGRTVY
The experiment in a line: AHAS inhibition assay, colorimetric acetoin at […] nm. In kind it is biochemical. To be noted: cultivar MR219; partially purified leaf extract; 60 min incubation; read-out: I50.

The target in experiment [2] is T2, AHAS (acetohydroxyacid synthase), weedy rice (Oryza sativa, UniProt Q6K2E8, S627N/V643M).
T2 construct: gene ALS1; native enzyme, partially purified leaf extract; Pro93 and Met669 (Arabidopsis numbering); resistant weedy rice allele (S653N) deposited as GenBank MN268688
T2 sequence (Q6K2E8 44-644 S627N/V643M): T1 sequence (Q6K2E8 44-644 P67T) with T24P, S584N, V600M
Described as above. In kind it is biochemical. To be noted: susceptible (S) population; partially purified leaf extract; 60 min incubation; read-out: I50.

On to `Cc1cnc(C2=NC(=O)C(C)(C(C)C)N2)c(C(=O)O)c1` (stereo not shown) [imazapic], for which the results for the IC50 in experiment [1] and in experiment [2] were 1.7 nM and 1.2 nM, respectively.
Taken in the same sequence, the figures for `CC(C)C1(C)N=C(c2ncccc2C(=O)O)NC1=O` (stereo not shown) [imazapyr] were 1.7 nM and 2.5 nM.
